Reference: patent publication US8889370B2, “Method of determining inhibitors of coagulation” (Siemens Healthcare Diagnostics Products GmbH, priority 2010, dated 2014)
pKi: −log10 of the molar value. Like-named read-outs stand apart in the source and are kept apart here.

Molecular target: T1, factor Xa (Homo sapiens, UniProt P00742)
T1 construct: an F Xa reagent consisting of a lyophilized plasma fraction containing factor Xa; purchased Siemens Healthcare Diagnostics (Berichrom heparin assay, F Xa reagent); host or cells: plasma fraction
T1 sequence (P00742 235-488 limits assumed): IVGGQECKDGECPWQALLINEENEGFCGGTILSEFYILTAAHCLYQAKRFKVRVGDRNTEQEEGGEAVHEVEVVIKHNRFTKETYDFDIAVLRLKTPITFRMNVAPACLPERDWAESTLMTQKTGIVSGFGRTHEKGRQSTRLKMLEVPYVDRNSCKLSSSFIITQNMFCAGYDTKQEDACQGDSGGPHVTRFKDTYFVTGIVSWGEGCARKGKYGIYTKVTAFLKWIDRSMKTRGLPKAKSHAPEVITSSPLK
T1 sequence (P00742 41-179 partner limits assumed): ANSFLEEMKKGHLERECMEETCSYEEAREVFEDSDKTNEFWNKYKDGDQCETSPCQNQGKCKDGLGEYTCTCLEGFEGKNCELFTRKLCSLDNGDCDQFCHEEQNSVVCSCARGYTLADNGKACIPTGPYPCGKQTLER
Assay: Determination of the F Xa binding constant (Ki) of peptide aldehyde ligands, chromogenic assay with Berichrom heparin assay reagents, Dixon plot
Type: biochemical
Protocol: The kinetic data of the peptide aldehyde ligands were determined in chromogenic assay formats by measuring the rate of hydrolysis of chromogenic peptide substrates which compete with the peptide aldehyde ligands for binding to the active site of the particular enzyme, at various substrate concentrations and peptide aldehyde-ligand concentrations. The binding constant (Ki) was determined by a known method (Dixon, M., 1953, Biochem J, 55, 170-171).
The F Xa binding constant was determined using the reagents of the Berichrom® heparin assay from Siemens Healthcare Diagnostics. The Berichrom® heparin assay consists of: an F Xa reagent consisting of a lyophilized plasma fraction containing factor Xa, and additives such as Tris, NaCl, EDTA and preservatives, a chromogenic substrate reagent (Z-D-Leu-Gly-Arg-ANBA-methyl-amide), a dilution reagent for reconstitution, and a dextran sulfate reagent consisting of lyophilized dextran sulfate.
After reconstitution in 10 ml of dilution reagent, the dextran sulfate concentration is 0.02 g/l. The F Xa reagent is reconstituted with the reconstituted dextran sulfate reagent. The substrate reagent, after constitution with 2 ml of deionized water, contains 4 mmol/l Z-D-Leu-Gly-Arg-ANBA-methyl-amide. Dilutions of the substrate reagent were prepared with deionized water. The peptide aldehyde ligands prepared according to example 1 were dissolved in water and used as sample. The assays were carried out automatically in a BCS® XP coagulation analyzer (Siemens Healthcare Diagnostics, Marburg, Germany).
A reaction mix was mixed together as follows:
15 μl of sample (peptide aldehyde ligand B-r-G-R—H or B-f-P—R—H), […]
30 μl of substrate reagent (Z-D-Leu-Gly-Arg-ANBA-methyl-amide).
The reaction rate in mE/min was determined on the basis of the increase in optical density of the reaction mix at a wavelength of 405 nm. For this, the optical density of the reaction mixes was determined in a time interval from 10 to 70 seconds.

N=C(N)NCCC[C@@H](C=O)NC(=O)CNC(=O)[C@@H](CCCNC(=N)N)NC(=O)CCC(=O)NCCCOCCOCCOCCCNC(=O)CCCC[C@@H]1SC[C@@H]2NC(=O)N[C@@H]21 [B-r-G-R-H, biotinyl-Ttds-D-Arg-Gly-Arg-H]
1/Reaction rate (CB-r-G-R-H 0.20380 μM, Csubstrate = 0.5 mM): 5.521 min/E
1/Reaction rate (CB-r-G-R-H 0.20380 μM, Csubstrate = 2 mM): 1.457 min/E
1/Reaction rate (CB-r-G-R-H 0.20380 μM, Csubstrate = 4 mM): 0.8262 min/E
1/Reaction rate (CB-r-G-R-H 0.32609 μM, Csubstrate = 0.5 mM): 6.13 min/E
1/Reaction rate (CB-r-G-R-H 0.32609 μM, Csubstrate = 2 mM): 1.612 min/E
1/Reaction rate (CB-r-G-R-H 0.32609 μM, Csubstrate = 4 mM): 0.9061 min/E
1/Reaction rate (CB-r-G-R-H 0.40761 μM, Csubstrate = 0.5 mM): 6.408 min/E
1/Reaction rate (CB-r-G-R-H 0.40761 μM, Csubstrate = 2 mM): 1.659 min/E
1/Reaction rate (CB-r-G-R-H 0.40761 μM, Csubstrate = 4 mM): 0.9259 min/E
1/Reaction rate (CB-r-G-R-H 0.65217 μM, Csubstrate = 0.5 mM): 7.754 min/E
1/Reaction rate (CB-r-G-R-H 0.65217 μM, Csubstrate = 2 mM): 1.975 min/E
1/Reaction rate (CB-r-G-R-H 0.65217 μM, Csubstrate = 4 mM): 1.099 min/E
1/Reaction rate (CB-r-G-R-H 0.81522 μM, Csubstrate = 0.5 mM): 8.403 min/E
1/Reaction rate (CB-r-G-R-H 0.81522 μM, Csubstrate = 2 mM): 2.115 min/E
1/Reaction rate (CB-r-G-R-H 0.81522 μM, Csubstrate = 4 mM): 1.177 min/E
1/Reaction rate (CB-r-G-R-H 1.30435 μM, Csubstrate = 0.5 mM): 12.05 min/E
1/Reaction rate (CB-r-G-R-H 1.30435 μM, Csubstrate = 2 mM): 2.802 min/E
1/Reaction rate (CB-r-G-R-H 1.30435 μM, Csubstrate = 4 mM): 1.476 min/E
1/Reaction rate (CB-r-G-R-H 1.63043 μM, Csubstrate = 0.5 mM): 13.97 min/E
1/Reaction rate (CB-r-G-R-H 1.63043 μM, Csubstrate = 2 mM): 3.147 min/E
1/Reaction rate (CB-r-G-R-H 1.63043 μM, Csubstrate = 4 mM): 1.679 min/E
1/Reaction rate (CB-r-G-R-H 2.60870 μM, Csubstrate = 0.5 mM): 20.14 min/E
1/Reaction rate (CB-r-G-R-H 2.60870 μM, Csubstrate = 2 mM): 4.627 min/E
1/Reaction rate (CB-r-G-R-H 2.60870 μM, Csubstrate = 4 mM): 2.274 min/E
1/Reaction rate (CB-r-G-R-H 3.26087 μM, Csubstrate = 0.5 mM): 26.42 min/E
1/Reaction rate (CB-r-G-R-H 3.26087 μM, Csubstrate = 2 mM): 5.52 min/E
1/Reaction rate (CB-r-G-R-H 3.26087 μM, Csubstrate = 4 mM): 2.728 min/E
1/Reaction rate (CB-r-G-R-H 4.89130 μM, Csubstrate = 0.5 mM): 37.79 min/E
1/Reaction rate (CB-r-G-R-H 4.89130 μM, Csubstrate = 2 mM): 8.244 min/E
1/Reaction rate (CB-r-G-R-H 4.89130 μM, Csubstrate = 4 mM): 3.745 min/E
1/Reaction rate (CB-r-G-R-H 6.52174 μM, Csubstrate = 0.5 mM): 52.69 min/E
1/Reaction rate (CB-r-G-R-H 6.52174 μM, Csubstrate = 2 mM): 10.45 min/E
1/Reaction rate (CB-r-G-R-H 6.52174 μM, Csubstrate = 4 mM): 4.819 min/E
1/Reaction rate (CB-r-G-R-H 8.15217 μM, Csubstrate = 0.5 mM): 62.32 min/E
1/Reaction rate (CB-r-G-R-H 8.15217 μM, Csubstrate = 2 mM): 12.99 min/E
1/Reaction rate (CB-r-G-R-H 8.15217 μM, Csubstrate = 4 mM): 5.669 min/E
1/Reaction rate (CB-r-G-R-H 13.04348 μM, Csubstrate = 0.5 mM): 98.11 min/E
1/Reaction rate (CB-r-G-R-H 13.04348 μM, Csubstrate = 2 mM): 19.61 min/E
1/Reaction rate (CB-r-G-R-H 13.04348 μM, Csubstrate = 4 mM): 8.47 min/E
Intersect of regression curve 1/reaction rate vs ligand concentration (Csubstrate 0.5 mM): 2.8743 min/E
Slope of regression curve 1/reaction rate vs ligand concentration (Csubstrate 0.5 mM): 7.3110 min/E μM
Intersect of regression curve 1/reaction rate vs ligand concentration (Csubstrate 2 mM): 1.0169 min/E
Slope of regression curve 1/reaction rate vs ligand concentration (Csubstrate 2 mM): 1.4375 min/E μM
Intersect of regression curve 1/reaction rate vs ligand concentration (Csubstrate 4 mM): 0.7187 min/E
Slope of regression curve 1/reaction rate vs ligand concentration (Csubstrate 4 mM): 0.6037 min/E μM
pKi (intersection of regression curves Csubstrate 2 and 0.5 mM, read-out: Ki2&3 F Xa binding constant): 6.50
pKi (intersection of regression curves Csubstrate 4 and 0.5 mM, read-out: Ki1&3 F Xa binding constant): 6.49
pKi (intersection of regression curves Csubstrate 4 and 2 mM, read-out: Ki1&2 F Xa binding constant): 6.45
binding of the peptide aldehyde with F Xa (reversible or irreversible) (intersections of regression curves not on the x axis): reversible
pKi (read-out: average F Xa binding constant KiM): 6.48
